Patent publication US20070072222A1, “FABP4 as biomarker for toxic effect” (priority 2005, published 2007)
Values belong to the compound of their own block, whether it stands above or below them.

Legend:
mice = test: Oral repeat-dose toxicity study in mice; format: in vivo, mouse (CD-1, C57BL6)
Description: (§1) CD-1 mice (Charles River Laboratories, UK): • treatment with 3-{1-[2-(2-CHLORO-PHENYL)-5-METHYL-OXAZOL-4-YLMETHYL]-1H-INDOL-5-YL}-2-ETHOXY-PROPIONIC ACID for 1 day; doses were 0, 0.2 and 3 mg/kg • treatment with 3-{1-[2-(2-CHLORO-PHENYL)-5-METHYL-OXAZOL-4-YLMETHYL]-1H-INDOL-5-YL}-2-ETHOXY-PROPIONIC ACID for 10 days; doses were 0, 0.2 and 3 mg/kg • treatment with 3-{1-[2-(2-CHLORO-PHENYL)-5-METHYL-OXAZOL-4-YLMETHYL]-1H-INDOL-5-YL}-2-ETHOXY-PROPIONIC ACID for 14 days; doses were 0, 0.6 and 15 mg/kg
(§2) C57BL6 mice (RCC Ltd, Füllinsdorf): • treatment with 3-{1-[2-(2-CHLORO-PHENYL)-5-METHYL-OXAZOL-4-YLMETHYL]-1H-INDOL-5-YL}-2-ETHOXY-PROPIONIC ACID for 1 day; doses were 0, 0.2 and 3 mg/kg • treatment with 3-{1-[2-(2-CHLORO-PHENYL)-5-METHYL-OXAZOL-4-YLMETHYL]-1H-INDOL-5-YL}-2-ETHOXY-PROPIONIC ACID for 10 days; doses were 0, 0.2 and 3 mg/kg
(§3) Cynomolgus Monkey (macaca fascicularis): • treatment with 3-{1-[2-(2-CHLORO-PHENYL)-5-METHYL-OXAZOL-4-YLMETHYL]-1H-INDOL-5-YL}-2-ETHOXY-PROPIONIC ACID for 28 days; doses were 0, 0.015, 0.09 and 0.31 mg/kg • Treatment with 3-{1-[2-(2-CHLORO-PHENYL)-5-METHYL-OXAZOL-4-YLMETHYL]-1H-INDOL-5-YL}-2-ETHOXY-PROPIONIC ACID for 16 weeks; doses were […], 0.1, 0.3 and 1 mg/kg 3-{1-[2-(2-CHLORO-PHENYL)-5-METHYL-OXAZOL-4-YLMETHYL]-1H-INDOL-5-YL}-2-ETHOXY-PROPIONIC ACID was dissolved in 20% propylene glycol/phosphate buffer, pH8. Treated animals were dosed orally (p.o.).

[1] = tested on: rat tissue (liver, heart, skeletal muscle, Brown adipose tissue); test: Oral repeat-dose toxicity study in rats; format: in vivo, Wistar rats; conditions: at similar exposure levels as in mice
Description: Wistar rats (RCC Ltd, Füllinsdorf): • treatment with 3-{1-[2-(2-CHLORO-PHENYL)-5-METHYL-OXAZOL-4-YLMETHYL]-1H-INDOL-5-YL}-2-ETHOXY-PROPIONIC ACID for 14 days; doses were 0, 0.3 and 1.2 mg/kg • Treatment with 3-{1-[2-(2-CHLORO-PHENYL)-5-METHYL-OXAZOL-4-YLMETHYL]-1H-INDOL-5-YL}-2-ETHOXY-PROPIONIC ACID for 28 days; doses were 0, 0.1, 0.5 and 2.5 mg/kg
as §3

[2] = tested on: monkey tissue (liver, heart, skeletal muscle, Brown adipose tissue); test: Oral repeat-dose toxicity study in monkeys; format: in vivo, Cynomolgus Monkey (macaca fascicularis); conditions: at similar exposure levels as in mice
Description: as §3

[3] = tested on: mouse FABP4 (SEQ. ID NO: 3); test: FABP4 gene expression in mouse liver (Affymetrix microarray MEA 230 plus); format: in vivo, mouse (CD1, C57Bl/6); conditions: mice, after p.o. administration
Description: as §1, §2
(§4) The expression levels of FABP4 of the mice (SEQ. ID NO: 3) were measured using Affymetrix microarrays (MEA 230 plus, probe sets: 1417023_a_at, 1424155_at, 1425809_at, 1451263_a_at) or Applied Biosystems Assays on Demand (assay ID: Mm00445880_ml). The expression levels of FABP4 of the rat (SEQ. ID NO: 2) were measured using Affymetrix microarrays (RG U34A, probe set: rc_AI169612_at) or Applied Biosystems Assays on Demand (assay ID: Rn00670361_ml). The expression levels of FABP4 of the monkeys were not measured.

[4] = tested on: rat FABP4 (SEQ. ID NO: 2); test: FABP4 gene expression in rat liver (Affymetrix microarray RG U34A); format: in vivo, Wistar rats; conditions: for FABP4 expression relative to time matched vehicle control, Affymetrix result (Fold change): rat liver
Description: as §4
(§5) Wistar rats (RCC Ltd, Füllinsdorf): • treatment with INDOMETHACIN (1-(4-Chlorobenzoyl)-5-methoxy-2-methyl-3-indoleacetic acid, Sigma I7378), single dose p.o. (orally); doses were 0, 2, 10 and 20 mg/kg • Treatment with INDOMETHACIN (1-(4-Chlorobenzoyl)-5-methoxy-2-methyl-3-indoleacetic acid, Sigma I7378) for 7 days; doses were 0, 2, and 5 mg/kg/day INDOMETHACIN was dissolved in corn oil. Treated animals were dosed orally (p.o.). The expression levels of FABP4 of the rat (SEQ. ID NO: 2) were measured using Affymetrix microarrays (RG U34A, probe sets: rc_AI169612_at) or Applied Biosystems Assays on Demand (assay ID: Rn00670361_ml).

[5] = tested on: rat FABP4 (SEQ. ID NO: 2); test: FABP4 mRNA expression in rat liver by PCR (Applied Biosystems Assays on Demand); format: in vivo, Wistar rats
Description: as §4, §5

livers = test: Liver histopathology and clinical biochemistry in indomethacin treated rats; format: in vivo, Wistar rats
Description: as §5

[6] = single dose 20 mg/kg, necropsy 24 hours

Compound: CCOC(Cc1ccc2c(ccn2Cc2nc(-c3ccccc3Cl)oc2C)c1)C(=O)O (stereo not drawn) [3-{1-[2-(2-CHLORO-PHENYL)-5-METHYL-OXAZOL-4-YLMETHYL]-1H-INDOL-5-YL}-2-ETHOXY-PROPIONIC ACID]
Dose at which mortality occurred (mice; mice, p.o.): ≥ 0.6 mg/kg/day
Exposure at which dose-dependent severe toxicity was found (mice; mouse, in vivo, po): ≥ 50 × anticipated human exposure
Findings in other tissues (mice; mouse, in vivo, po): degeneration of heart and skeletal muscle, and brown adipose tissue
Toxicity in tissue (liver, heart, skeletal muscle, brown adipose tissue) [1]: not observed
Toxicity in tissue (liver, heart, skeletal muscle, brown adipose tissue) [2]: not observed
Expression of fatty acid binding protein 4 in liver [3]: strong induction
Expression of FABP4 in liver ([4]; rat, in vivo): not induced

Compound: ClC(Cl)(Cl)Cl [carbon tetrachloride]
Expression of FABP4 in liver ([4]; rats, after administration): an induction of the expression of FABP4 was also found

FABP4 expression relative to time matched vehicle control, Affymetrix result (Fold change) ([4]; 2 mg/kg/day for 7 days): 1 Fold change
FABP4 expression relative to time matched vehicle control, Affymetrix result (Fold change) ([4]; 5 mg/kg/day for 7 days): 79.59 Fold change
Expression of fatty acid binding protein 4 in liver (Affymetrix gene arrays) ([4]; rats, 24 hours after single dose 10 or 20 mg/kg, and 7 consecutive days 5 mg/kg/day): strong induction
FABP4 expression relative to time matched vehicle control, PCR result (Fold change) ([5]; 5 mg/kg/day for 7 days): 26.92 Fold change
Compound: COc1ccc2c(c1)c(CC(=O)O)c(C)n2C(=O)c1ccc(Cl)cc1 [indomethacin, 1-(4-Chlorobenzoyl)-5-methoxy-2-methyl-3-indoleacetic acid]
Expression of FABP4 in liver ([4]; Wistar, rat, in vivo): an induction of the expression of FABP4 was also found
FABP4 expression relative to time matched vehicle control, Affymetrix result (Fold change) ([4]; single dose 2 mg/kg, necropsy 6 hours): 1 Fold change
FABP4 expression relative to time matched vehicle control, Affymetrix result (Fold change) ([4]; single dose 2 mg/kg, necropsy 24 hours): 1 Fold change
FABP4 expression relative to time matched vehicle control, Affymetrix result (Fold change) ([4]; single dose 10 mg/kg, necropsy 6 hours): 1 Fold change
FABP4 expression relative to time matched vehicle control, Affymetrix result (Fold change) ([4]; single dose 10 mg/kg, necropsy 24 hours): 4.13 Fold change
FABP4 expression relative to time matched vehicle control, Affymetrix result (Fold change) ([4]; single dose 20 mg/kg, necropsy 6 hours): 1 Fold change
FABP4 expression relative to time matched vehicle control, Affymetrix result (Fold change) [4, 6]: 8.41 Fold change
FABP4 expression relative to time matched vehicle control, PCR result (Fold change) [5, 6]: 13.68 Fold change
Clinical biochemistry parameters (livers; especially 10 and 20 mg/kg single dose and 5 mg/kg/day repeated treatment): changes of different clinical biochemistry parameters indicative of liver changes
Liver histopathology (livers; p.o., dose dependent): Slight histopathological alterations (hepatocellular hypertrophy)
Hepatocellular glycogen deposition (livers; single administration of 10 or 20 mg/kg or 5 mg/kg/day for 7 consecutive days): Decreased hepatocellular glycogen deposition

Compound: lipopolysaccharide
Expression of FABP4 in liver ([4]; rats, after administration): an induction of the expression of FABP4 was also found
